Experimental findings from ChEMBL document CHEMBL1129145, “Phosphonate-containing analogs of cholesteryl ester as novel inhibitors of cholesteryl ester transfer protein” (Bioorg Med Chem Lett, 1996) are described below.

In assay [1] the target is T1, Cholesteryl ester transfer protein (Homo sapiens, UniProt P11597).
T1 sequence (P11597 whole entry): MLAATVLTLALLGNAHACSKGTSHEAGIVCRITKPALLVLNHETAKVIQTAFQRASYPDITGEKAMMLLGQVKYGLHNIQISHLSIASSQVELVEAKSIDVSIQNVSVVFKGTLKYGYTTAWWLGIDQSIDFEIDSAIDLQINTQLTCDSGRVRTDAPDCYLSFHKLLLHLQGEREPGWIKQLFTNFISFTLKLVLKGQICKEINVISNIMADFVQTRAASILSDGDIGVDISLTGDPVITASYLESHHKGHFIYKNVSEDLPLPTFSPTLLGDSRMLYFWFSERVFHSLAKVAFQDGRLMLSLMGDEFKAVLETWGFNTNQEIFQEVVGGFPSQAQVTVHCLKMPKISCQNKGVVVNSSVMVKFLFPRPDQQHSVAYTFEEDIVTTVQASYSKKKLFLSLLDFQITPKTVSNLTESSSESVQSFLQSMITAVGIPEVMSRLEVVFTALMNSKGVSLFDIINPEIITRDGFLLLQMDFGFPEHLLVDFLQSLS
Put plainly: Tested for inhibition of [3H]cholesteryl linoleate(CE) transfer from donor HDL to acceptor LDL driven by recombinant human Cholesteryl ester transfer protein; Inactive.

Assay [2] concerns the target T1, Cholesteryl ester transfer protein. Put plainly: Tested for inhibition of [3H]cholesteryl linoleate(CE) transfer from donor HDL to acceptor LDL driven by recombinant human Cholesteryl ester transfer protein.
For assay [3] the target is unchanged. The assay can be described thus: Tested for inhibition of [3H]cholesteryl linoleate(CE) transfer from donor HDL to acceptor LDL driven by recombinant human cholesteryl ester transfer protein.
Assay [4] concerns the target T2, Cholesteryl ester transfer protein (Homo sapiens) (UniProt P11597).
T2 sequence (whole entry): T1 sequence (P11597 whole entry)
Put plainly: Tested for inhibition of [3H]cholesteryl linoleate(CE) transfer from donor HDL to acceptor LDL driven by recombinant human Cholesteryl ester transfer protein at 30 micro M.

In assay [5] the target is T1, Cholesteryl ester transfer protein. The assay can be described thus: Tested for inhibition of [3H]cholesteryl linoleate(CE) transfer from donor HDL to acceptor LDL driven by recombinant human cholesteryl ester transfer protein; Inactive.
Assay [6] shares this target. The assay can be described thus: Tested for inhibition of [3H]cholesteryl linoleate(CE) transfer from donor HDL to acceptor LDL driven by recombinant human cholesteryl ester transfer protein; inactive.
Assay [7] concerns the target T2, Cholesteryl ester transfer protein (Homo sapiens). Put plainly: Tested for inhibition of [3H]cholesteryl linoleate(CE) transfer from donor HDL to acceptor LDL driven by recombinant human cholesteryl ester transfer protein at 30 micro M.

Take `CCCCCC[PH](=O)OCc1ccccc1` (stereo not given): the IC50 (commonly the point on the concentration scale where inhibition reaches its midpoint) in assay [1] was “Not Active”. As for `CCCCCCCCCCCCCCP(=O)(O)OCc1ccccc1`, the IC50 in assay [2] amounted to 5 µM.

Turning to `CCCCCCCCCCCCCCCCCCP(=O)(O)CCc1ccccc1`, the IC50 in assay [3] stood at 14 µM. As to `CCCCCCCCCCCCCCCCCCP(=O)(O)OCc1ccccc1`, the IC50 in assay [3] came out at 2 µM. As to `CCCCCCCCCCCCCCP(=O)(O)OCc1cccc(Oc2ccccc2)c1`, in assay [2], the IC50 stood at 6 µM. Regarding `CCCCCCCCCCCCCCCCCCP(=O)(O)OC1c2ccccc2-c2ccccc21`, the IC50 entry in assay [1] is “Not Active”.

As to `CCCCCCCCCCCCCCCCCCP(=O)(O)Oc1ccc2c(c1)Cc1ccccc1-2`, in assay [1], the IC50 entry is “Not Active”. For the molecule `CCCCCCCCCCCCCCCCCC[PH](=O)O`, the inhibition (commonly how much of the control response was suppressed) in assay [4] was determined as 28%.

For the molecule `CCCCCCCCCCCCCCCCCCP(=O)(O)Oc1cc2ccccc2c2ccccc12`, the IC50 result in assay [1] is reported as “Not Active”. In the case of `CCCCCCCCCCCCCCP(=O)(O)OCc1ccoc1`, the IC50 in assay [2] stood at 15 µM. As to `CCCCCCCCCCCCCCCCCCP(=O)(O)OCc1cccnc1`, in assay [1], the IC50 entry is recorded as “Not Active”. Regarding `CCCCCCCCCCCCCCCP(=O)(O)OCc1ccccc1`, in assay [2], the IC50 amounted to 4 µM. Turning to `CCCCCCCCCCCCCc1n[nH]c(=S)n1-c1ccccc1`, the IC50 in assay [2] was 1.5 µM. Take `CCCCCCCCCCCCCCCCCC[PH](=O)OCc1ccccc1` (stereo not given): in assay [1], the IC50 result is “Not Active”. `CCCCCCCCCCCCCCCCCCP(=O)(OC)OCc1ccccc1` (stereo not given): the IC50 result in assay [5] is given as “Not Active”. Regarding `CCCCCCCCCCCCCCCCCCP(=O)(O)O[C@H]1CC[C@@]2(C)C(CC[C@H]3[C@@H]4CC[C@H]([C@H](C)CCCC(C)C)[C@@]4(C)CC[C@@H]32)C1` (stereo not given in full), the inhibition in assay [4] came to 30%. In the case of `CCCCCCCCCCCCCCCCCC[PH](=O)O[C@H]1CC[C@@]2(C)C(CC[C@H]3[C@@H]4CC[C@H]([C@H](C)CCCC(C)C)[C@@]4(C)CC[C@@H]32)C1` (stereo not given in full), the IC50 entry in assay [6] is “Not Active”. Regarding `CCCCCCCCCCCCCCCCCCP(=O)(O)OC`, in assay [7], the inhibition worked out at 46%. In the case of `CCCCCCCCCC[PH](=O)OCc1ccccc1` (stereo not given), the IC50 entry in assay [1] is recorded as “Not Active”.

As for `CCCCCCCCCCCCCCP(=O)(O)Oc1ccc2ccccc2c1`, the IC50 in assay [2] stood at 24 µM.
